Assay results from US12077503B2, “Substituted cyclic amides and their use as herbicides” (FMC CORPORATION, priority 2015, dated 2024).

Experiments:
Assay type in all cases: in vivo
[1] = tested on: Kochia (Kochia scoparia); experiment: Test A preemergence; settings: Preemergence
Text: (§1) Seeds of plant species selected from barnyardgrass (Echinochloa crus-galli), Kochia (Kochia scoparia), ragweed (common ragweed, Ambrosia elatior), ryegrass, Italian (Italian ryegrass, Lolium multiflorum), crabgrass, large (Digitaria sanguinalis), giant foxtail (Setaria faberii), green foxtail (Setaria viridis), morningglory (Ipomoea spp.), pigweed (Amaranthus retroflexus), velvetleaf (Abutilon theophrasti), wheat (Triticum aestivum), and corn (Zea mays) were planted into a blend of loam soil and sand and treated preemergence with a directed soil spray using test chemicals formulated in anon-phytotoxic solvent mixture which included a surfactant.
(§2) At the same time, plants selected from these crop and weed species and also blackgrass (Alopecurus myosuroides), and Galium (catchweed bedstraw, Galium aparine) were planted in pots containing the same blend of loam soil and sand and treated with postemergence applications of test chemicals formulated in the same manner. Plants ranged in height from 2 to 10 cm and were in the one- to two-leaf stage for the postemergence treatment. Treated plants and untreated controls were maintained in a greenhouse for approximately 10 d, after which time all treated plants were compared to untreated controls and visually evaluated for injury. Plant response ratings, summarized in Table A, are based on a 0 to 100 scale where 0 is no effect and 100 is complete control. A dash (-) response means no test result.

[2] = tested on: barnyardgrass (Echinochloa crus-galli); experiment: Test A preemergence; settings: Preemergence
Text: as §1, §2

[3] = tested on: giant foxtail (Setaria faberii); experiment: Test A preemergence; settings: Preemergence
Text: as §1, §2

[4] = tested on: pigweed (Amaranthus retroflexus); experiment: Test A preemergence; settings: Preemergence
Text: as §1, §2

[5] = tested on: ragweed (common ragweed, Ambrosia elatior); experiment: Test A preemergence; settings: Preemergence
Text: as §1, §2

[6] = tested on: ryegrass, Italian (Italian ryegrass, Lolium multiflorum); experiment: Test A preemergence; settings: Preemergence
Text: as §1, §2

[7] = tested on: Galium (catchweed bedstraw, Galium aparine); experiment: Test A postemergence
Text: as §1, §2

[8] = tested on: Kochia (Kochia scoparia); experiment: Test A postemergence
Text: as §1, §2

[9] = tested on: barnyardgrass (Echinochloa crus-galli); experiment: Test A postemergence
Text: as §1, §2

[10] = tested on: blackgrass (Alopecurus myosuroides); experiment: Test A postemergence
Text: as §1, §2

[11] = tested on: corn (Zea mays); experiment: Test A postemergence
Text: as §1, §2

[12] = tested on: giant foxtail (Setaria faberii); experiment: Test A postemergence
Text: as §1, §2

[13] = tested on: pigweed (Amaranthus retroflexus); experiment: Test A postemergence
Text: as §1, §2

[14] = tested on: ragweed (common ragweed, Ambrosia elatior); experiment: Test A postemergence
Text: as §1, §2

[15] = tested on: ryegrass, Italian (Italian ryegrass, Lolium multiflorum); experiment: Test A postemergence
Text: as §1, §2

[16] = tested on: wheat (Triticum aestivum); experiment: Test A postemergence
Text: as §1, §2

[17] = tested on: barnyardgrass (Echinochloa crus-galli); experiment: Test B flooded paddy test; settings: Flood, 250 g ai/ha; 0 to 100 scale where 0 is no effect and 100 is complete control; 13 to 15 d
In short: (§3)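 Response scored visually against untreated controls, 0 = no effect and 100 = complete control, 13–15 d after treatment in the greenhouse. Compounds added to paddy water held 3 cm above soil surface. Treatment given at 2-leaf stage.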

[18] = tested on: ducksalad (Heteranthera limosa); experiment: Test B flooded paddy test; settings: Flood, 250 g ai/ha; 0 to 100 scale where 0 is no effect and 100 is complete control; 13 to 15 d
In short: as §3

[19] = tested on: rice (Oryra sativa); experiment: Test B flooded paddy test; settings: Flood, 250 g ai/ha; 0 to 100 scale where 0 is no effect and 100 is complete control; 13 to 15 d
In short: as §3

[20] = tested on: sedge, umbrella (small-flower umbrella sedge, Cyperus difformis); experiment: Test B flooded paddy test; settings: Flood, 250 g ai/ha; 0 to 100 scale where 0 is no effect and 100 is complete control; 13 to 15 d
In short: as §3

[21] = 125 g ai/ha, visual injury after approximately 10 d, 0 to 100 scale where 0 is no effect and 100 is complete control
[22] = 500 g ai/ha, visual injury approx. 10 d
[23] = 125 g ai/ha, postemergence, visual injury rating on 0 to 100 scale (0 no effect, 100 complete control), approx. 10 d
[24] = Postemergence, 500 g ai/ha, 0 to 100 scale where 0 is no effect and 100 is complete control

Structure (SMILES): O=C1NCC(c2c(F)cccc2F)C1C(=O)Nc1ccc(F)cc1F (racemic) [Compound 517]
- Plant response rating, Kochia [1, 21]: 0
- Kochia plant response rating (0 to 100 scale, 0 is no effect, 100 is complete control) [1, 22]: 0
- Plant response rating, Barnyardgrass [2, 21]: 0
- Barnyardgrass plant response rating (0 to 100 scale, 0 is no effect, 100 is complete control) [2, 22]: 0
- Plant response rating, Foxtail, Giant [3, 21]: 0
- Foxtail, Giant plant response rating (0 to 100 scale, 0 is no effect, 100 is complete control) [3, 22]: 30
- Plant response rating, Pigweed [4, 21]: 0
- Pigweed plant response rating (0 to 100 scale, 0 is no effect, 100 is complete control) [4, 22]: 0
- Plant response rating, Ragweed [5, 21]: 0
- Ragweed plant response rating (0 to 100 scale, 0 is no effect, 100 is complete control) [5, 22]: 0
- Plant response rating, Ryegrass, Italian [6, 21]: 0
- Ryegrass, Italian plant response rating (0 to 100 scale, 0 is no effect, 100 is complete control) [6, 22]: 0
- Galium plant response rating [7, 23]: 0
- Plant response rating, Galium [7, 24]: 0
- Kochia plant response rating [8, 23]: 0
- Plant response rating, Kochia [8, 24]: 0
- Barnyardgrass plant response rating [9, 23]: 20
- Plant response rating, Barnyardgrass [9, 24]: 30
- Blackgrass plant response rating [10, 23]: 0
- Plant response rating, Blackgrass [10, 24]: 0
- Corn plant response rating [11, 23]: 0
- Plant response rating, Corn [11, 24]: 0
- Foxtail, Giant plant response rating [12, 23]: 0
- Plant response rating, Foxtail, Giant [12, 24]: 0
- Pigweed plant response rating [13, 23]: 0
- Plant response rating, Pigweed [13, 24]: 0
- Ragweed plant response rating [14, 23]: 0
- Plant response rating, Ragweed [14, 24]: 0
- Ryegrass, Italian plant response rating [15, 23]: 0
- Plant response rating, Ryegrass, Italian [15, 24]: 0
- Wheat plant response rating [16, 23]: 0
- Plant response rating, Wheat [16, 24]: 0
- Plant response rating, Barnyardgrass [17]: 0
- Plant response rating, Ducksalad [18]: 0
- Plant response rating, Rice [19]: 0
- Plant response rating, Sedge, Umbrella [20]: 0
